The values below come from patent publication US20160052898A1, “NOVEL COMPOUNDS” (BAYER PHARMA AKTIENGESELLSCHAFT, priority 2013, published 2016).

Broadly, the pIC50 is the negative decadic logarithm of the IC50, by convention in mol/L.

Experiment [1] has as its system HCT116 FOP control reporter cell line. The experiment is described as follows: HCT116 FOP control vector reporter assay (non-functional TCF elements). To be noted: HCT116 FOP control reporter cells, luciferase expression, 36 hours incubation, 50 μM to 15 nM, read-out: HCT116 FOPFlash IC50. The format is cell-based. Here is the method:
(§1) In a parallel approach, HCT116 cells were cotransfected with the FOP control vector and pcDNA3. The FOP vector is identical to the TOP construct, but it contains instead of functional TCF elements a randomized, non-functional sequence. For this transfection a stable transfected cell line was generated as well.
(§2) In preparation of the assay, the two cell lines were plated 24 hrs before at 10000 cells per well of a 384 micro titre plate (MTP) in 30 μL growth medium. Selective inhibitory activity for small molecules on the mutated Wnt pathway was determined after parallel incubation of both (TOP and FOP) HCT116 reporter cell lines with a compound dilution series from 50 μM to 15 nM in steps of 3.16-fold dilutions in CAFTY buffer (130 mM NaCl, 5 mM KCl, 20 mM HEPES, 1 mM MgCl2, 5 mM NaHCO3, pH 7.4) containing 2 mM Ca^2+ and 0.01% BSA. The compounds were thereby serially prediluted in 100% DMSO and thereafter in addition 50 fold into the CAFTY compound dilution buffer (described above). From this dilution 10 μL were added to the cells in 30 μL growth medium and incubated for 36 hours at 37° C. and 5% CO2. Thereafter luciferase assay buffer (1:1 mixture of luciferase substrate buffer (20 mM Tricine, 2.67 mM MgSO4, 0.1 mM EDTA, 4 mM DTT, 270 μM Coenzyme A, 470 μM Luciferin, 530 μM ATP, ph adjusted to pH 7.8 with a sufficient volume of 5M NaOH) and Triton buffer (30 mL Triton X-100, 115 mL glycerol, 308 mg Dithiothreitol, 4.45 g Na2HPO4.2 H2O, 3.03 g Tris.HCL, ad 1 l H20, pH 7.8) was added as equal volume to the compound solution on the cells to determine luciferase expression as a measure of Wnt signaling activity in a luminometer.
In general terms: Reporter assays use an easily measured gene product as a stand-in for the process of interest.

Experiment [2] has as its system constitutive active colorectal cancer cell (CRC) Wnt pathway. The experiment is described as follows: HCT116 Super TopFlash cellular reporter assay (constitutive active Wnt pathway). The format is cell-based. The conditions noted are these: HCT116 TOP reporter cells, luciferase expression, 36 hours incubation, 50 μM to 15 nM. The method, then:
In order to discover and characterize small molecules which inhibit the constitutive active colorectal cancer cell (CRC) Wnt pathway, a cellular reporter assay was employed. The corresponding assay cell was generated by transfection of the colorectal cancer cell line HCT116 (ATCC, #CCL-247) with the Super TopFlash vector (Morin, Science 275, 1997, 1787-1790; Molenaar et al., Cell 86 (3), 1996, 391-399). The HCT116 cell line is cultivated at 37° C. and 5% CO2 in DMEM/F-12 (Life Technologies, #11320-074), supplemented with 2 mM glutamine, 20 mM HEPES, 1.4 mM pyruvate, 0.15% Na-bicarbonate and 10% foetal bovine serum (GIBCO, #10270), this cancer cell line is pathophysiological relevant since it carries a deletion of position S45 in the β-catenin gene, leading to constitutive active Wnt signaling. Stable transfectants were generated by cotransfection with pcDNA3 and selection of stable transfected cells with 1 mg/ml G418.
as §1, §2

Molecules are shown by their SMILES. pIC50: −log10 of the molar value. Where two headings read alike, the source gives them in different places.

Regarding `CCC(C(=O)Nc1cc(C(=O)Nc2ccc(-c3ccccc3)cc2)ccc1OC)N1CCOCC1` (single isomer, unassigned) [Example 131, N-(biphenyl-4-yl)-4-methoxy-3-{[(2R*)-2-(morpholin-4-yl)butanoyl)amino} benzamide], the pIC50 in experiment [1] (Homo sapiens, HCT-116, 36 h) was ≤ 4.30; in experiment [2] (Homo sapiens, HCT-116, 36 h), 6.76.
Consider `CCC(C(=O)Nc1cc(C(=O)Nc2ccc(-c3ccccc3)cc2)ccc1OC)N1CCOCC1` (single isomer, unassigned) [Example 132, N-(biphenyl-4-yl)-4-methoxy-3-{[(2S*)-2-(morpholin-4-yl)butanoyl]amino} benzamide], for which the pIC50 in experiment [1] is ≤ 4.30; in experiment [2], 6.51.
As to `COCc1ccc(C(=O)Nc2ccc(-c3ccccc3)cc2)cc1NC(=O)C(C)N1CC2CCC(C1)O2` (single isomer, unassigned) [Example 146, N-(biphenyl-4-yl)-4-(methoxymethyl)-3-{[(2R*)-2-(8-oxa-3-azabicyclo[3.2.1]oct-3-yl)propanoyl)amino} benzamide], the pIC50 was 4.57 in experiment [1] (Homo sapiens, HCT-116, 36 h) and 8.00 in experiment [2] (Homo sapiens, HCT-116, 36 h).
Take `COCCOCc1ccc(C(=O)Nc2ccc(-c3ccccc3)cc2)cc1NC(=O)C(C)N1CCOCC1` (single isomer, unassigned) [Example 162, N-(biphenyl-4-yl)-4-[(2-methoxyethoxy)methyl]-3-{[(2R*)-2-(morpholin-4-yl)propanoyl)amino} benzamide]: the pIC50 in experiment [1] (Homo sapiens, HCT-116, 36 h) was 4.98; in experiment [2] (Homo sapiens, HCT-116, 36 h) it was 6.99.
On to `COCCCOCc1ccc(C(=O)Nc2ccc(-c3ccccc3)cc2)cc1NC(=O)C(C)N1CCOCC1` (single isomer, unassigned) [Example 166, N-(biphenyl-4-yl)-4-[(3-methoxypropoxy)methyl]-3-{[(2R*)-2-(morpholin-4-yl)propanoyl]amino} benzamide], for which the pIC50 in experiment [1] (Homo sapiens, HCT-116, 36 h) was 5.27; in experiment [2] it was 6.87.
In the case of `COCc1ccc(C(=O)Nc2ccc(-c3ccccc3)cc2)cc1NC(=O)C(C)N1CC2CCC(C1)O2` (single isomer, unassigned) [Example 167, N-(biphenyl-4-yl)-4-(methoxymethyl)-3-{[(2S*)-2-(8-oxa-3-azabicyclo[3.2.1]oct-3-yl)propanoyl]amino} benzamide], the pIC50 was 4.39 in experiment [1] (Homo sapiens, HCT-116, 36 h) and 6.86 in experiment [2] (Homo sapiens, HCT-116, 36 h).
As to `COCc1ccc(C(=O)Nc2ccc(-c3ccccc3)cc2)cc1NC(=O)C(C)N1CCOCC1` (single isomer, unassigned) [Example 169, N-(biphenyl-4-yl)-4-(methoxymethyl)-3-{[(2R*)-2-(morpholin-4-yl)propanoyl]amino} benzamide], the negative logarithm of the IC50 (pIC50) was 5.00 in experiment [1] (Homo sapiens, HCT-116, 36 h) and 6.81 in experiment [2] (Homo sapiens, HCT-116, 36 h).
In the case of `CC(C(=O)Nc1cc(NC(=O)c2ccc(-c3ccccc3)cc2)ccc1C(F)(F)F)N1CCOCC1` (single isomer, unassigned) [Example 172, N-[3-{[(2R*)-2-(morpholin-4-yl)propanoyl]amino}-4-(trifluoromethyl)phenyl] biphenyl-4-carboxamide], the pIC50 in experiment [1] (Homo sapiens, HCT-116, 36 h) is ≤ 4.30; in experiment [2] (Homo sapiens, HCT-116, 36 h), 6.68.
For the molecule `COCc1ccc(C(=O)Nc2ccc(-c3ccccc3)cc2)cc1NC(=O)C(C)N1CCOCC1` (single isomer, unassigned) [Example 173, N-(biphenyl-4-yl)-4-(methoxymethyl)-3-{[(2S*)-2-(morpholin-4-yl)propanoyl]amino} benzamide], the results for the pIC50 in experiment [1] and in experiment [2] were 5.12 and 6.67, respectively.
Take `COCCOCc1ccc(C(=O)Nc2ccc(-c3ccccc3)cc2)cc1NC(=O)C(C)N1CCOCC1` (single isomer, unassigned) [Example 177, N-(biphenyl-4-yl)-4-[(2-methoxyethoxy)methyl)-3-{[(2S*)-2-(morpholin-4-yl)propanoyl)amino} benzamide]: the pIC50 in experiment [1] (Homo sapiens, HCT-116, 36 h) was 4.82; in experiment [2] (Homo sapiens, HCT-116, 36 h), 6.58.
On to `COCCCOCc1ccc(C(=O)Nc2ccc(-c3ccccc3)cc2)cc1NC(=O)C(C)N1CCOCC1` (single isomer, unassigned) [Example 179, N-(biphenyl-4-yl)-4-[(3-methoxypropoxy)methyl]-3-{[(2S*)-2-(morpholin-4-yl)propanoyl]amino} benzamide], for which the figures for the pIC50 in experiment [1] and in experiment [2] were 5.12 and 6.52, respectively.
`CC(C(=O)Nc1cc(NC(=O)c2ccc(-c3ccccc3)cc2)ccc1C(F)(F)F)N1CCOCC1` (single isomer, unassigned) [Example 180, N-(3-{[(2S*)-2-(morpholin-4-yl)propanoyl]amino}-4-(trifluoromethyl)phenyl] biphenyl-4-carboxamide]: the pIC50 in experiment [1] was ≤ 4.30; in experiment [2], 6.52.
Take `CC(C(=O)Nc1cc(NC(=O)c2ccc(-c3ccccc3)cc2)ccc1C(F)(F)F)N1CC2CCC(C1)O2` (single isomer, unassigned) [Example 182, N-[3-{[(2R*)-2-(8-oxa-3-azabicyclo[3.2.1]oct-3-yl)propanoyl]amino}-4-(trifluoromethyl)phenyl] biphenyl-4-carboxamide]: the negative-log IC50 (pIC50) was ≤ 4.30 in experiment [1] (Homo sapiens, HCT-116, 36 h) and 6.51 in experiment [2].
Take `O=C(Cn1cccn1)Nc1cc(C(=O)Nc2ccc(-c3ccccc3)cc2)ccc1C(F)(F)F` [Example 3, N-(biphenyl-4-yl)-3-[(1H-pyrazol-1-ylacetyl)amino]-4-(trifluoromethyl)benzamide]: the pIC50 was ≤ 4.30 in experiment [1] (Homo sapiens, HCT-116, 36 h) and 6.37 in experiment [2] (Homo sapiens, HCT-116, 36 h).
Turning to `COc1cc(Cl)c(C(=O)Nc2ccc(-c3ccccc3)cc2)cc1NC(=O)C(C)N1CCOCC1` (centres unmarked) [Example 5, N-(biphenyl-4-yl)-2-chloro-4-methoxy-5-{[2-(morpholin-4-yl)propanoyl]amino}benzamide], the pIC50 in experiment [1] (Homo sapiens, HCT-116, 36 h) is ≤ 4.30; in experiment [2] (Homo sapiens, HCT-116, 36 h) it was 6.29.
On to `COc1cc(Cl)c(C(=O)Nc2ccc(-c3ccccc3)cc2)cc1NC(=O)CN1CCOCC1` [Example 6, N-(biphenyl-4-yl)-2-chloro-4-methoxy-5-[(morpholin-4-ylacetyl)amino]benzamide], for which the pIC50 in experiment [1] (Homo sapiens, HCT-116, 36 h) was ≤ 4.30; in experiment [2] (Homo sapiens, HCT-116, 36 h), 5.41.
The corresponding values for `O=C(CN1CC2CCC(C1)O2)Nc1cc(C(=O)Nc2ccc(-c3ccccc3)cc2)ccc1C(F)(F)F` [Example 10, N-(biphenyl-4-yl)-3-[(8-oxa-3-azabicyclo[3.2.1]oct-3-ylacetyl)amino]-4-(trifluoromethyl)benzamide] are ≤ 4.30 and 6.77.
Turning to `O=C(CN1C[C@@H]2C[C@H]1CO2)Nc1cc(C(=O)Nc2ccc(-c3ccccc3)cc2)ccc1C(F)(F)F` [Example 11, N-(biphenyl-4-yl)-3-{[(1S,4S)-2-oxa-5-azabicyclo[2.2.1]hept-5-ylacetyl]amino}-4-(trifluoromethyl)benzamide], the pIC50 in experiment [1] (Homo sapiens, HCT-116, 36 h) is ≤ 4.30; in experiment [2] (Homo sapiens, HCT-116, 36 h), 6.27.
For the molecule `O=C(CN1CCOCC1)Nc1cc(C(=O)Nc2ccc(-c3ccccc3)cc2)ccc1-c1cccs1` [Example 19, N-(biphenyl-4-yl)-3-[(morpholin-4-ylacetyl)amino]-4-(2-thienyl)benzamide], the pIC50 in experiment [1] (Homo sapiens, HCT-116, 36 h) is ≤ 4.30; in experiment [2] (Homo sapiens, HCT-116, 36 h), 6.87.
On to `CN(C)C(=O)c1ccc(C(=O)Nc2ccc(-c3ccccc3)cc2)cc1NC(=O)CN1CCOCC1` [Example 21, N^4-(biphenyl-4-yl)-N^1,N^1-dimethyl-2-[(morpholin-4-ylacetyl)amino]terephthalamide], for which the pIC50 in experiment [1] (Homo sapiens, HCT-116, 36 h) is 4.78; in experiment [2] (Homo sapiens, HCT-116, 36 h) it was 6.48.
For the molecule `O=C(CN1CCOCC1)Nc1cc(C(=O)Nc2ccc(-c3ccccc3)cc2)ccc1OCc1ccccc1` [Example 24, 4-(benzyloxy)-N-(biphenyl-4-yl)-3-[(morpholin-4-ylacetyl)amino]benzamide], the pIC50 in experiment [1] (Homo sapiens, HCT-116, 36 h) is ≤ 4.30; in experiment [2] (Homo sapiens, HCT-116, 36 h) it was 6.44.
Take `O=C(CN1CCOCC1)Nc1cc(NC(=O)c2ccc(-c3ccccc3)cc2)ccc1F` [Example 29, N-{4-fluoro-3-[(morpholin-4-ylacetyl)amino]phenyl}biphenyl-4-carboxamide]: the pIC50 in experiment [1] (Homo sapiens, HCT-116, 36 h) was ≤ 4.30; in experiment [2] (Homo sapiens, HCT-116, 36 h), 5.67.
